Measured values taken from patent US9040545B2, “Heterocyclyl pyrazolopyrimidine analogues as selective JAK inhibitors” (Cellzome Limited, priority 2010, dated 2015).

Molecular target: T1, Aurora A (Homo sapiens, UniProt O14965)
T1 construct: cell lysates from Jurkat cells (ATCC TIB-152) used; endogenous in cells; host or cells: Jurkat cells (ATCC TIB-152), treated with pervanadate
T1 sequence (O14965 1-403): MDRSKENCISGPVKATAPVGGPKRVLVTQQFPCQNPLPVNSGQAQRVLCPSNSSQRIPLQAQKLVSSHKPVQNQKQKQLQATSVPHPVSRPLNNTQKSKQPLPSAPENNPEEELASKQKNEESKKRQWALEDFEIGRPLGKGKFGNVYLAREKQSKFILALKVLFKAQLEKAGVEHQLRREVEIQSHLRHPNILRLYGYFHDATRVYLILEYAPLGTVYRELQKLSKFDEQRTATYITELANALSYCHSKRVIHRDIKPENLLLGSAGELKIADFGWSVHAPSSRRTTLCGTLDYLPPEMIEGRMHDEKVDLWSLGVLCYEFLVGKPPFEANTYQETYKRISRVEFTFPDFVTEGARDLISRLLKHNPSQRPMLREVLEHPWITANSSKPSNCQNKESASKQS
Assay: Kinobeads assay, Aurora A
Type: binding
Conditions: for IC50: lysate of pervanadate-treated Jurkat cells, read-out: Inhibition values (IC50) Aur A

In the case of Cn1cc(Nc2ncc3cnn(Cc4cccc(-c5cnn(CCO)c5)c4)c3n2)cn1 [Example 121, 2-(4-(3-((6-((1-methyl-1H-pyrazol-4-yl)amino)-1H-pyrazolo[3,4-d]pyrimidin-1-yl)methyl)phenyl)-1H-pyrazol-1-yl)ethanol], the “JAK3/AurA Fold Selectivity” value is reported as 10-50 Fold and the IC50 is reported as 0.1 to 1 µM.
Cn1cc(-c2cccc(Cn3ncc4cnc(Nc5cnn(CCO)c5)nc43)c2)cn1 [Example 122, 2-(4-((1-(3-(1-methyl-1H-pyrazol-4-yl)benzyl)-1H-pyrazolo[3,4-d]pyrimidin-6-yl)amino)-1H-pyrazol-1-yl)ethanol] was tested, and the “JAK3/AurA Fold Selectivity” value was 10-50 Fold and the IC50 was 0.1 to 1 µM.
With Cn1cc(Nc2ncc3cnn(Cc4cccc(-c5cnn(C)c5)c4F)c3n2)cn1 [Example 123, 1-(2-fluoro-3-(1-methyl-1H-pyrazol-4-yl)benzyl)-N-(1-methyl-1H-pyrazol-4-yl)-1H-pyrazolo[3,4-d]pyrimidin-6-amine] the “JAK3/AurA Fold Selectivity” value was 10-50 Fold and the IC50 was 1 to 10 µM.
In the case of Cn1cc(-c2cccc(Cn3ncc4cnc(Nc5cnn(CCO)c5)nc43)c2F)cn1 [Example 124, 2-(4-((1-(2-fluoro-3-(1-methyl-1H-pyrazol-4-yl)benzyl)-1H-pyrazolo[3,4-d]pyrimidin-6-yl)amino)-1H-pyrazol-1-yl)ethanol], the “JAK3/AurA Fold Selectivity” value is reported as 10-50 Fold and the IC50 is reported as 0.1 to 1 µM.
With Cn1cc(Nc2ncc3cnn(Cc4cc(F)cc(-c5cnn(C)c5)c4)c3n2)cn1 [Example 125, 1-(3-fluoro-5-(1-methyl-1H-pyrazol-4-yl)benzyl)-N-(1-methyl-1H-pyrazol-4-yl)-1H-pyrazolo[3,4-d]pyrimidin-6-amine] the “JAK3/AurA Fold Selectivity” value was 10-50 Fold and the IC50 was 1 to 10 µM.
For Cn1cc(Nc2ncc3cnn(Cc4cc(-c5cnn(C)c5)cc(F)c4F)c3n2)cn1 [Example 126, 1-(2,3-difluoro-5-(1-methyl-1H-pyrazol-4-yl)benzyl)-N-(1-methyl-1H-pyrazol-4-yl)-1H-pyrazolo[3,4-d]pyrimidin-6-amine], the “JAK3/AurA Fold Selectivity” value was >50 Fold and the IC50 was 1 to 10 µM.
With Cn1cc(-c2cc(F)c(F)c(Cn3ncc4cnc(Nc5cnn(CCO)c5)nc43)c2)cn1 [Example 127, 2-(4-((1-(2,3-difluoro-5-(1-methyl-1H-pyrazol-4-yl)benzyl)-1H-pyrazolo[3,4-d]pyrimidin-6-yl)amino)-1H-pyrazol-1-yl)ethanol] the “JAK3/AurA Fold Selectivity” value was 10-50 Fold and the IC50 was 0.1 to 1 µM.
